Consider 5 molecules from US9309187B2, “EP2 receptor agonists” (TAKEDA GMBH, priority 2012, dated 2016).

Type in all cases: cell-based
Assay [1] has as its system normal human lung fibroblasts (NHLF). The assay can be described thus: Inhibition of the proliferation of normal human lung fibroblasts (NHLF). The settings on record: Fibroblast, IL1β (50 pg/mL) and bFGF (10 ng/mL) for 36 h, methyl-3H thymidine incorporation, read-out: inhibition of NHLF proliferation pIC50 (-log IC50) (converted). On the procedure: Method for Determination of the Inhibition of the Proliferation of Normal Human Lung Fibroblasts (NHLF)
16,500 NHLF-cells were seeded in each well of 24-well cell culture plates and were subsequently cultivated for 3.5 days. Thereafter cell culture medium was replaced by non-serum containing medium and cells were starved for 24 h. Subsequently a serial dilution of test compound was added and cells were stimulated with IL1β (Interleukine 1 beta) (50 pg/mL) and bFGF (basic Fibroblast Growth Factor) (10 ng/mL) for 36 h. For DNA-synthesis (Desoxyribonucleic Acid-synthesis) measurement methyl-^3H thymidine was added to the cells for the last 7 h of the 36 h incubation period. Thereafter the radioactive labeled cells were processed for measurement of the incorporated radioactivity as a marker for DNA-synthesis and thus proliferation. For that purpose the cell culture supernatants were removed, adherent cells washed once with ice-cold PBS and fixed in ice-cold 10% (w/v) trichloroacetic acid (TCA) for 30 min. Thereafter TCA was discarded and the DNA of the fixed cells hydrolyzed by administering 0.2 N NaOH. The radioactivity containing NaOH was then transferred into scintillation vials, scintillation liquid added and radioactivity was counted (L56500, Beckman Counter). Test compounds were dissolved in DMSO to a stock concentration of 10 mM. After administration of the compound to the cell cultures the final DMSO concentration was 0.1%. Inhibition of proliferation by the various concentrations of test compound was calculated related to 0.1% DMSO-treated control cells.
The numbers of the compounds correspond to the examples numbers.
Background: Uptake of a labelled nucleoside into DNA is a usual measure of proliferation.

Assay [2] concerns TNFalpha release in human whole blood stimulated with LPS. The assay can be described thus: Inhibition of LPS induced TNFalpha release in human whole blood. The settings on record: 1 microg/mL LPS, 4 hours, reported as range bins, read-out: Inhibition of LPS induced TNFalpha release in human whole blood pIC30 (-log IC30). On the procedure:
Method for Measuring the Inhibition of TNFalpha Release in Human Whole Blood Stimulated with LPS:
Assay was performed with some modifications of the method described by Hatzelmann and Schudt (Hatzelmann and Schudt (2001) JPET 297: 267-279) and the protocol “drawing of venous blood from healthy volunteers for in vitro studies” was approved by the ethics committee of the Landesärztekammer Baden Württemberg in Stuttgart.
Heparinised venous blood was equilibrated to assay conditions for 1 hour at room temperature upon blood drawing. Immediately thereafter, 200 microL whole blood per sample were pre-incubated with 25 microL of a serial dilution of test compound or piclamilast as positive control for 30 min. at 37° C. After pre-incubation blood samples were stimulated by the addition of 25 microL lipopolysaccharide (LPS) (Sigma, Aldrich) per sample resulting in a final concentration of 1 microg/mL LPS and a final volume of 250 microL. Cells were incubated for 4 hours at 37° C. TNFalpha levels were determined from plasma that was obtained by a centrifugation step and transferring the supernatant to a new 96-well plate which was again centrifuged and clear plasma supernatant was used for the measurement of TNFalpha via alphaLISA Technology according to manufacture protocol (Perkin Elmer).
Whole blood samples that were not stimulated with LPS were used as control and set for 100% inhibition. Whole blood samples that were stimulated with LPS and solvent instead of test compound were set as 0% inhibition. Percent inhibition was calculated based on these controls for each sample and since most compounds achieved saturating maximal inhibition of 60% a pIC30 value was calculated with GraphPad Prism Software.
For the following compounds the inhibitory values of TNFalpha release [determined as −log IC30=pIC30] in the human whole blood assay between 4.5 and 4.9, between 5.0 and 5.9 and between 6.0 and 6.9 have been determined. The numbers of the compounds correspond to the examples numbers.
Inhibition of LPS Induced TNFalpha Release Assay in Human Whole Blood: pIC30

The target of assay [3] is T1, human prostanoid receptor EP2 (Homo sapiens, UniProt P43116).
T1 construct: expressed in transfected cells; host or cells: CHO-K1 (CHOp6CreLuc-huEP2)
T1 sequence (P43116 whole entry): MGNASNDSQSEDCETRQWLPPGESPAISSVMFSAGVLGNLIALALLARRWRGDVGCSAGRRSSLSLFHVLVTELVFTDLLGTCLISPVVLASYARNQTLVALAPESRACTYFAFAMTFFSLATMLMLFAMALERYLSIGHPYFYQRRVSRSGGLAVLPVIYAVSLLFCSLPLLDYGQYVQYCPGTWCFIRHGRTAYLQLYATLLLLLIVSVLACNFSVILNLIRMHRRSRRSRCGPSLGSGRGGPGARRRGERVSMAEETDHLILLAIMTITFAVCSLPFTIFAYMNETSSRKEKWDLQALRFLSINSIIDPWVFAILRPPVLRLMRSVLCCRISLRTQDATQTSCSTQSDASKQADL
In words: EP2 cAMP release assay in CHOp6CreLuc-huEP2 cells (CRE-luciferase readout). The settings on record: CHOp6CreLuc-huEP2 cells, 4 hours at 37° C.; reported as range bins; read-out: EP2 cAMP release assay pEC50 (-log EC50) (converted). On the procedure:
Method for Measuring cAMP Release in Human EP2 Stably Transfectant Cells:
The potency and efficacy of EP2 agonists have been determined via measuring cAMP release in stably transfectant CHO-K1 cell expressing the human prostanoid receptor EP2 and luciferase enzyme regulated via a 6 times CRE (cAMP response element) containing transcriptional promoter. CHOp6CreLuc-huEP2 cells were seeded into 384-well plate (1000 cells per well) in DMEM/F12 (Dulbecco's Modified Eagle Medium/Nutrient Mixture F12) cell culture medium containing 2% FCS (Fetal Calf Serum) and 500 μg/ml G418 24 hours prior to the experiment. Test compound was added as serial dilutions while keeping the final DMSO concentration constant in each well. […] Cells were incubated together with test compound or butaprost for 4 hours at 37° C. The cAMP release was determined indirectly via luciferase activity that directly correlated to the amount of luciferase enzyme expressed in response to cAMP regulated promoter activity. The luciferase activity was determined by addition of luciferin containing buffer and subsequent quantification of resulting luminescence. Each sample was measured in quadruplicates per experiment and half-maximal effective concentration (EC50) and relative maximal effect compared to butaprost was determined from 3 independent experiments with GraphPad Prism Software. A compound that achieved over 80% of the maximal effect of butaprost was considered as full agonist.
For the following compounds the potency was determined in the cAMP release assay applying human EP2 transfectant CHOp6CreLuc-huEP2 cells. […] The numbers of the compounds correspond to the examples numbers.
EP2 cAMP Release Assay: pEC50

A word on the IC30: it is the concentration at which the effect reaches the 30% level. Usually EC50 stands for the concentration giving half of the maximal effect.

Regarding `O=C(O)/C=C/c1cccc(NC(=O)c2cc(-c3ccccc3)cc3ccccc23)c1` [Example 1, (2E)-3-(3-{[(3-phenylnaphthalen-1-yl)carbonyl]amino}phenyl)prop-2-enoic acid], the IC50 in assay [1] is 1.58 to 15.8 nM. The IC30 in assay [2] is 126 to 1000 nM. Besides, in assay [3], the EC50 is 0.00631 to 0.1 nM.

For `O=C(O)/C=C/c1ccc(F)c(NC(=O)c2cc(-c3ccccc3)cc3ccccc23)c1` [Example 2, (2E)-3-(4-fluoro-3-{[(3-phenylnaphthalen-1-yl)carbonyl]amino}phenyl)prop-2-enoic acid], the IC50 in assay [1] is 1.58 to 15.8 nM. Also, the IC30 in assay [2] was 126 to 1000 nM. For the same molecule, in assay [3], the 50% effective concentration (EC50) was 0.00631 to 0.1 nM.

In the case of `O=C(O)/C=C/c1ccc(Cl)c(NC(=O)c2cc(-c3ccccc3)cc3ccccc23)c1` [Example 3, (2E)-3-(4-chloro-3-{[(3-phenylnaphthalen-1-yl)carbonyl]amino}phenyl)prop-2-enoic acid], the IC30 in assay [2] fell in the range of 12600 to 31600 nM. Moreover, the EC50 in assay [3] is 0.00631 to 0.1 nM.

On to `O=C(O)/C=C/c1ccc(F)c(NC(=O)c2cc(-c3ccccc3F)cc3ccccc23)c1` [Example 9, (2E)-3-{3-[({3-[2-fluorophenyl]naphthalen-1-yl}carbonyl)amino]-4fluorophenyl}prop-2-enoic acid], for which the IC50 in assay [1] was 1.58 to 15.8 nM. Besides, the IC30 in assay [2] was in the range of 126 to 1000 nM. The EC50 in assay [3] was 0.00631 to 0.1 nM.

On to `O=C(O)/C=C/c1ccc(F)c(NC(=O)c2cc(-c3cccc(F)c3)cc3ccccc23)c1` [Example 10, (2E)-3-{3-[({3-[3-fluorophenyl]naphthalen-1-yl}carbonyl)amino]-4fluorophenyl}prop-2-enoic acid], for which, in assay [1], the IC50 was 1.58 to 15.8 nM. In assay [2], the IC30 is 126 to 1000 nM. Moreover, the EC50 in assay [3] is 0.00631 to 0.1 nM.
